Assay in all cases: growth of human tumour cells (NCI), 48 h
For test [1], the system named is EKVX NSCLC.
For test [2], the system named is UACC-62 melanoma.
For test [3], the system named is NCI-H23 lung.
The test system of test [4] is A498 renal.
In test [5] the test system is HS 578T breast.
Test [6] has as its system UACC-257 melanoma.
The test system of test [7] is COLO 205 colon.
Test [8] deals with LOX IMVI melanoma.
For test [9], the system named is A549 NSCLC.
In test [10] the test system is SK-MEL-5 melanoma.
Test [11] deals with MDA-MB-231 breast.
Test [12] concerns SF-268 CNS.
Test [13] deals with OVCAR-3 ovarian.
Test [14] has as its system M14 melanoma.
The test system of test [15] is SF-539 CNS.
The subject of test [16] is NCI-H226 lung.
For test [17], the system named is K-562 leukemia.
Test [18] has as its system HCT-15 colon.
Test [19] has as its system SR leukemia.
For test [20], the system named is TK-10 renal.

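1) Cells in 96-well plates. 2) Compound, 48 h, 5 concentrations. 3) Linear interpolation between surrounding doses. 4) Unreached endpoint = highest concentration. TGI is the concentration that stops growth completely.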 *1 amine or outer side, *2 acyl side, *3 side chain or, on linkers, in order; H or OH if unused. Where a SMILES comes first, the peptide text is derived from it. [ ]: non-standard residue; d: D form. The star is where a group is joined. ξ: configuration not given here. NMeY = CN[C@@H](Cc1ccc(O)cc1)C(=O)O; Ethylenediamine = C(CN[*:2])N[*:1]; ξNMeL = CNC(CC(C)C)C(=O)O; Cbz = O=C(OCc1ccccc1)*; Lac = C[C@H](O)C(=O)O; ξA = CC(N)C(=O)O

For the molecule `COc1cc2oc(=O)cc(C)c2c(OC)c1O`, the TGI is greater than 100 µM in test [1]; greater than 100 µM in [2]; greater than 100 µM in test [3]; 94.8 µM in [4]; 65 µM in test [5]; greater than 100 µM in test [6]. The TGI in test [7], in test [8], in test [9], in test [10], in test [11] and in test [12] was greater than 100 µM throughout. The TGI in [13], in test [14], in [15], in test [16], in test [17] and in test [18] was greater than 100 µM in each case. Moreover, the TGI in test [19] and in test [20] was greater than 100 µM in each case.

As to `O=C1C[C@H](COCc2ccccc2)NC(=O)C[C@H](COCc2ccccc2)NC(=O)C[C@H](COCc2ccccc2)N1`, the TGI in [1] was greater than 100 µM; in test [2], greater than 100 µM; in test [3] it was greater than 100 µM; in test [4] it was 42 µM; in test [5] it was greater than 100 µM; in [6] it was greater than 100 µM. For the same molecule, the TGI in [7] is greater than 100 µM; in test [8], greater than 100 µM; in test [9], greater than 100 µM; in [10], greater than 100 µM; in test [11] it was 85.2 µM; in test [12], greater than 100 µM. For the same molecule, the TGI is greater than 100 µM in test [13]; greater than 100 µM in [14]; 75.1 µM in test [15]; greater than 100 µM in [16]; greater than 100 µM in test [17]; greater than 100 µM in [18]. Also, the TGI in [19] is greater than 100 µM; in [20] it was 41.1 µM.

For `N#Cc1c(C#N)c(-c2ccccc2)n(Cc2ccccc2)c1N`, the TGI in [1], in test [2], in [3], in [4], in [5] and in test [6] was greater than 100 µM throughout. Besides, the TGI in [7] was greater than 100 µM; in test [8], greater than 100 µM; in test [9] it was greater than 100 µM; in test [10], greater than 100 µM; in [11] it was 86.4 µM; in test [12] it was greater than 100 µM. Besides, the TGI is greater than 100 µM in test [13]; greater than 100 µM in [14]; 63.4 µM in test [15]; greater than 100 µM in test [16]; greater than 100 µM in [17]; greater than 100 µM in [18]. Also, the TGI in test [19] and in [20] was greater than 100 µM each time.

For `COC(=O)C1CCC(=O)N1CN(C(C)=O)c1cc(OC)ccc1OC` (stereo not given), the TGI in test [1], in [2], in test [3], in test [4], in test [5] and in [6] was greater than 100 µM in each case. Moreover, the TGI in test [7], in test [8], in [9], in test [10], in test [11] and in [12] was greater than 100 µM each time. Besides, the TGI in test [13], in test [14], in test [15], in test [16], in test [17] and in test [18] was greater than 100 µM throughout. Further, the TGI in [19] and in test [20] was greater than 100 µM each time.

For `COC1CC(OC2CCC3(C)C(=CCC4C3C(OC(C)=O)C(OC(=O)CC(C)C)C3(C)C(C(C)=O)CCC43O)C2)OC(C)C1OC1CC(OC)C(OC2CC(OC)C(OC3OC(C)C(O)C(OC)C3O)C(C)O2)C(C)O1` (stereo not given), the TGI in [1], in test [2], in [3], in test [4], in test [5] and in test [6] was greater than 100 µM each time. For the same molecule, the TGI is 45 µM in [7]; 43.5 µM in test [8]; greater than 100 µM in test [9]; 42.7 µM in test [10]; 65.6 µM in test [11]; greater than 100 µM in test [12]. For the same molecule, the TGI was greater than 100 µM in [13]; greater than 100 µM in test [14]; 51.2 µM in test [15]; 89.9 µM in test [16]; greater than 100 µM in test [17]; greater than 100 µM in [18]. In addition, the TGI in [19] was 62 µM; in test [20], greater than 100 µM.

On to `Cc1cc(S(=O)(=O)Nc2nnc3c4ccccc4cnn23)c(S)cc1Cl`, for which the TGI in test [1] was greater than 100 µM; in test [2], greater than 100 µM; in [3] it was greater than 100 µM; in test [4] it was greater than 100 µM; in test [5], greater than 89 µM; in test [6] it was greater than 100 µM. Moreover, the TGI in test [7], in test [8], in test [9], in test [10], in test [11] and in test [12] was greater than 100 µM each time. In addition, the TGI in [13] is greater than 100 µM; in [14] it was greater than 100 µM; in test [15] it was greater than 95 µM; in test [16], greater than 69.3 µM; in test [17], greater than 100 µM; in test [18], greater than 100 µM. Further, the TGI in test [19] and in [20] was greater than 100 µM in each case.

For the molecule `COc1ccc(C[C@@H](C(=O)NCCNC(=O)C(CC(C)C)N(C)C(=O)[C@@H]2CCCN2C(=O)[C@H](C)O)N(C)C(=O)[C@@H]2CCCN2C(=O)[C@H](CC(C)C)NC(=O)C(C)NC(=O)OCc2ccccc2)cc1` (stereo not given in full) (Cbz-[ξA]LP[NMeY](Me)-{Ethylenediamine-ξNMeL-Pro-Lac}), the TGI in [1], in test [2], in test [3], in test [4], in test [5] and in test [6] was greater than 100 µM in each case. Besides, the TGI in test [7], in [8], in test [9], in test [10], in [11] and in test [12] was greater than 100 µM throughout. The TGI in test [13], in [14], in [15], in test [16], in [17] and in test [18] was greater than 100 µM in each case. Moreover, the TGI in [19] and in test [20] was greater than 100 µM throughout.

Consider `c1csc(-c2nccc3c2[nH]c2ccccc23)c1`, for which the TGI in test [1] was 84.9 µM; in test [2], 62.4 µM; in [3] it was 38.2 µM; in test [4] it was 33.9 µM; in [5], greater than 100 µM; in test [6], 35.7 µM. In addition, the TGI is 28.9 µM in [7]; 39.7 µM in [8]; 49.2 µM in [9]; 31.4 µM in test [10]; 48.1 µM in test [11]; 56.7 µM in [12]. In addition, the TGI is 49.4 µM in [13]; 31.6 µM in test [14]; 32 µM in test [15]; 32 µM in test [16]; 63.8 µM in [17]; 48.1 µM in test [18]. Moreover, the TGI in test [19] was found to be 48 µM; in test [20], 48.7 µM.

On to `CCCN(CCC)C(=S)N/N=C(/C)c1ccccc1O`, for which the TGI was greater than 68.9 µM in test [1]; 15.1 µM in test [2]; greater than 68.2 µM in test [3]; 36.3 µM in test [4]; greater than 100 µM in [5]; 27.6 µM in test [6]. In addition, the TGI in test [7] is 21.8 µM; in [8], greater than 100 µM; in test [9], greater than 100 µM; in [10], greater than 41.2 µM; in test [11] it was 52.8 µM; in test [12], greater than 35.6 µM. Besides, the TGI in [13] is 14.9 µM; in test [14], 18.8 µM; in test [15], 19.4 µM; in test [16], greater than 41 µM; in [17] it was greater than 100 µM; in [18], greater than 93.2 µM. The results for the TGI in [19] and in [20] were 8.92 µM and 66.4 µM, respectively.

Regarding `Cc1cccc(NC(=O)O/N=C(\Cl)C(C)C)c1`, the TGI came to 11.1 µM in [1]; 29.6 µM in test [2]; 29.1 µM in test [3]; 34.4 µM in [4]; 63.7 µM in [5]; 31.5 µM in [6]. The TGI is 3.76 µM in test [7]; 3.67 µM in test [8]; 40.9 µM in [9]; 32.9 µM in test [10]; 33.4 µM in [11]; 38 µM in [12]. Moreover, the TGI in test [13] is 11.4 µM; in test [14], 16.4 µM; in [15], 20.3 µM; in test [16], 33.5 µM; in [17], greater than 100 µM; in [18] it was 4.98 µM. Moreover, the figures for the TGI in test [19] and in [20] were 4.4 µM and 27.3 µM, respectively.

As to `CCN(CC)Cc1ccccc1CC(=O)N1c2ccccc2C(=O)Nc2cccnc21`, the TGI in test [1], in [2], in [3], in [4], in [5] and in test [6] was greater than 100 µM throughout. Moreover, the TGI in [7], in [8], in test [9], in test [10], in test [11] and in [12] was greater than 100 µM throughout. In addition, the TGI in [13], in test [14], in test [15], in test [16], in test [17] and in [18] was greater than 100 µM in each case. Besides, the TGI in test [19] is 72.2 µM; in [20], greater than 100 µM.

Consider `O=C(CC(O)(C(F)(F)F)C(F)(F)Cl)CC(O)(C(F)(F)F)C(F)(F)Cl` (stereo not given), for which the TGI is greater than 10 µM in test [1]; greater than 10 µM in [2]; 4.34 µM in [3]; 9.22 µM in [4]; 6.69 µM in test [5]; 4.59 µM in test [6]. In addition, the TGI in test [7] is 3.07 µM; in test [8], 7.34 µM; in [9] it was greater than 10 µM; in test [10] it was 4.35 µM; in [11], 5.43 µM; in test [12], greater than 10 µM. Further, the TGI in test [13] was 9.14 µM; in test [14], greater than 10 µM; in test [15], greater than 10 µM; in [16], 6.92 µM; in [17], greater than 10 µM; in [18] it was greater than 10 µM. The TGI was greater than 10 µM in test [19] and 9.9 µM in test [20].

Take `CN1CC(c2ccccc2)C(O)(C2(c3ccccc3)CN(C)CC(c3ccccc3)C2=O)C(c2ccccc2)C1` (stereo not given): the TGI in [1] is greater than 100 µM; in test [2] it was greater than 100 µM; in [3] it was greater than 100 µM; in test [4] it was greater than 100 µM; in [5], 94.2 µM; in [6] it was greater than 100 µM. For the same molecule, the TGI in test [7], in [8], in test [9], in [10], in test [11] and in test [12] was greater than 100 µM throughout. For the same molecule, the TGI in test [13], in test [14], in test [15], in [16], in test [17] and in [18] was greater than 100 µM each time. Besides, the TGI in [19] and in test [20] was greater than 100 µM throughout.

The values are drawn from PubChem BioAssay (NCI).
